Laboratory results: publication PMC9213561, “3-nitroimidazo[1,2-b]pyridazine as a novel scaffold for antiparasitics with sub-nanomolar anti-Giardia lamblia activity” (International Journal for Parasitology: Drugs and Drug …, 2022)
Where two headings read alike, the source gives them in different places.

Key:
G. lamblia = test system: G. lamblia; parameters: method as in Blaazer et al., 2018; Kunz et al., 2017b; conditions: Fig. 2; ref Blaazer et al., 2018; Kunz et al., 2017b; cited from earlier work
T.b. brucei = test system: T.b. brucei; parameters: method as in Blaazer et al., 2018; Kunz et al., 2017b; conditions: Fig. 2; ref Blaazer et al., 2018; Kunz et al., 2017b; cited from earlier work
TbrPDEB1 = test system: TbrPDEB1; parameters: method as in Blaazer et al., 2018; Kunz et al., 2017b; conditions: Fig. 2; ref Blaazer et al., 2018; Kunz et al., 2017b; cited from earlier work
GlPDE = test system: GlPDE; parameters: method as in Blaazer et al., 2018; Kunz et al., 2017b; conditions: Fig. 2; ref Blaazer et al., 2018; Kunz et al., 2017b; cited from earlier work
Trypanosoma cruzi = assay: Growth inhibition of T. cruzi; type: cell-based; conditions: mean ± standard deviation, n ≥ 2
Procedure: (§1) G. lamblia trophozoites (WBC6) were seeded into 96-well-plates in 0.2 mL Keister-medium containing 10^3 trophozoites per well in the presence of the compounds dissolved in dimethyl sulfoxide (DMSO, final concentration 0.25%) or with DMSO as a solvent control and incubated for 72 h at 37 °C in an anaerobic chamber (80% N2, 10% H2, 10% CO2). Then, plates were centrifuged (2 min, 1000 rpm), medium was removed, and cells were washed once with PBS containing 1 g/L glucose. Then, PBS-glucose containing 10 mg/L resazurin was added, and plates were incubated for up to 5 h at 37 °C. Fluorescence reading (ex 530 nm/em 590 nm) was performed at various time points, and the linear increase of fluorescence was used as a marker for cell viability. IC50 values were calculated using the logit-log algorithm and are given as mean values with 95%-confidence intervals ([Müller et al., 2020]; [Müller and Hemphill, 2013]; [Müller and Müller, 2019]). The assays for growth inhibition of T. b. brucei, T. cruzi, L. infantum, P. falciparum and MRC-5 (human lung fibroblasts MRC-5SV40) were previously described ([Blaazer et al., 2014]). PDE activity was determined exactly as described ([de Heuvel et al., 2021]; [Kunz et al., 2005], [2017b]). All assays were carried out in triplicates and no more than 20% substrate was hydrolyzed in all reactions. Compounds were dissolved in DMSO and the final DMSO concentration was 1% in all reaction mixes. Control reactions with DMSO alone were always included. Data were analyzed using the GraphPad Prism software package (v7.0, GraphPad, San Diego).

[1] = test system: G. lamblia trophozoites (WBC6); assay: Growth inhibition of G. lamblia trophozoites (WBC6), resazurin viability read-out; type: cell-based, Giardia lamblia; conditions: for IC50: Giardia duodenalis; for fold higher anti-Giardia activity than metronidazole: versus metronidazole IC50 = 0.8 μM; for fold decrease of anti-Giardia activity: compared with 18
Procedure: as §1
Figure S67. Representative drug susceptibility curves of G. lamblia WBC6. Trophozoites were grown anaerobically in the presence of various concentrations of 17 (red), 29 (blue) and the reference compound metronidazole (MET, black). After 72 h, growth of cells was monitored by a cell viability assay based on the reduction of resazurin to a pink fluorescent product. Measured fluorescence units were normalized to the DMSO control. Data points and error bars represent mean and standard error of 4 replicates.

[2] = test system: Trypanosoma brucei brucei; assay: Growth inhibition of T. b. brucei; type: cell-based; conditions: mean ± standard deviation, n ≥ 2
Procedure: as §1

[3] = test system: MRC-5 (human lung fibroblasts MRC-5SV40); assay: Cytotoxicity on MRC-5 cells; type: cell-based; conditions: MRC5, mean ± standard deviation, n ≥ 2, read-out: IC50 (nM) MRC-5
Procedure: as §1, with “[…]-medium” for “Keister-medium”, “([[…],” for “([Müller et al., 2020]; [Müller and Hemphill, 2013]; [Müller and Müller,”

GlPDE (aa588-1371) = GlPDE (aa588-1371) (Giardia lamblia, UniProt A0A644EZ75); assay: GlPDE activity inhibition; type: biochemical; conditions: for Ki: mean ± standard deviation, n ≥ 2
Procedure: as §1
Figure S69. Representative dose-response curve of 11 against GlPDE (aa588-1371) enzyme (substrate concentration: 1 μM).

hPDE4B = hPDE4B (Homo sapiens, UniProt Q07343); assay: Human PDE4 activity inhibition; type: biochemical; conditions: for Ki: mean ± standard deviation, n ≥ 2
Procedure: as §1

Plasmodium falciparum = assay: Growth inhibition of P. falciparum; type: cell-based; conditions: mean ± standard deviation, n ≥ 2, read-out: IC50 (µM) P.f.
Procedure: as §1, with “[…]-medium” for “Keister-medium”, “([[…],” for “([Müller et al., 2020]; [Müller and Hemphill, 2013]; [Müller and Müller,”

Leishmania infantum = assay: Growth inhibition of L. infantum; type: cell-based; conditions: mean ± standard deviation, n ≥ 2
Procedure: as §1

[4] = WBC6 trophozoites, 72 h, anaerobic, mean ± standard error (95% CI, logit-log), quadruplicates, read-out: IC50 (nM) G.l.

Sequence of hPDE4B (Q07343 330-659 limits assumed): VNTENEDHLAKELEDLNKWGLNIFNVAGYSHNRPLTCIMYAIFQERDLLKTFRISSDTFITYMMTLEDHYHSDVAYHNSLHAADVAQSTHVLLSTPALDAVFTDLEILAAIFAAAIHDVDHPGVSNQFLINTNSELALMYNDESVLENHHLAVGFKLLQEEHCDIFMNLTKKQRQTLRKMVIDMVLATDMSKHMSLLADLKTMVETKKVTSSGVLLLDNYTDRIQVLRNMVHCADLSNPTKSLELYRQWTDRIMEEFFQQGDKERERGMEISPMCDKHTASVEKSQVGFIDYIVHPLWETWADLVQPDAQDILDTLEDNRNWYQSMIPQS

| Compound | IC50 (Trypanosoma cruzi) [µM] | IC50 [1, 4] [nM] | IC50 [2] [µM] | IC50 [3] [nM] | Ki (GlPDE (aa588-1371)) [µM] | Ki (hPDE4B) [µM] | IC50 (Plasmodium falciparum) [µM] | IC50 (Leishmania infantum) [µM] | other results |
| --- | --- | --- | --- | --- | --- | --- | --- | --- | --- |
| COc1ccc(C2=NN(C3CCCCCC3)C(=O)[C@H]3CC=CC[C@@H]23)cc1OCCCCOc1ccc(-c2nn[nH]n2)cc1 [Compound 9] |  |  |  |  |  |  |  |  | IC50 (G. lamblia): 6.9 µM; IC50 (T.b. brucei): 0.08 µM; IC50 (TbrPDEB1): […]; IC50 (GlPDE): 0.8 µM |
| COc1ccc(C2=NN(C3CCN(S(=O)(=O)c4cccc5cccnc45)CC3)C(=O)[C@@H]3CC=CC[C@H]23)cc1OC [Compound 10] |  |  |  |  |  |  |  |  | IC50 (G. lamblia): 1.5 µM; IC50 (T.b. brucei): 0.42 µM; IC50 (TbrPDEB1): 0.03 µM; IC50 (GlPDE): 3 µM |
| COc1ccc(C2=NN(C3CCN(c4ccc5ncc([N+](=O)[O-])n5n4)CC3)C(=O)[C@@H]3CC=CC[C@H]23)cc1OC [Compound 11, (4aS,8aR)-4-(3,4-Dimethoxyphenyl)-2-(1-(3-nitroimidazo[1,2-b]pyridazin-6-yl)piperidin-4-yl)-4a,5,8,8a-tetrahydrophthalazin-1(2H)-one] | 5.9 ± 4.5 | 0.5 ± 0.2 | 1 ± 0.7 | > 64000 | 0.5 ± 0.3 | 0.00016 ± 2e-05 | 6.3 ± 0.4 | 27.4 ± 25.3 | fold higher anti-Giardia activity than metronidazole [1]: > 1,000 fold; fold more active against human PDE4 than against GlPDE (hPDE4B; Ki hPDE4 versus Ki GlPDE): 3,000 fold |
| COc1ccc(C2=NN(C3CCN(c4ccc5ncc([N+](=O)[O-])n5n4)CC3)C(=O)CC2)cc1OC [Compound 18, 6-(3,4-Dimethoxyphenyl)-2-(1-(3-nitroimidazo[1,2-b]pyridazin-6-yl)piperidin-4-yl)-4,5-dihydropyridazin-3(2H)-one] | 50.9 ± 4.7 | 0.2 ± 0.1 | > 64 | > 64000 | > 10 | 0.0032 ± 0.0004 | 33.8 ± 37 | 26.4 ± 8.6 | IC50 ([1]; text value in pM, read-out: anti-Giardia IC50 on growth inhibition): ~0.2 nM; fold increase in anti-Giardia potency ([1]; compared with 11 (cyclohexene ring removed)): 2.5 fold; GlPDE Ki over IC50 for Giardia growth inhibition (GlPDE (aa588-1371)): over 50,000 fold; fold decrease of hPDE4 affinity (hPDE4B; compared with 11): 20 fold |
| COc1ccc(C2=NN(C3CCN(c4ccc5ncc([N+](=O)[O-])n5n4)CC3)C(=O)CC2)cc1Cl [Compound 19, 6-(3-Chloro-4-methoxyphenyl)-2-(1-(3-nitroimidazo[1,2-b]pyridazin-6-yl)piperidin-4-yl)-4,5-dihydropyridazin-3(2H)-one] | 5.4 ± 4.1 | 19 ± 3.2 | 22.2 ± 15.9 | > 64000 | > 1000 | 0.2 ± 0.05 | 7.2 ± 0.4 | 28.9 ± 31 | fold decrease of anti-Giardia activity [1]: 100 fold; fold higher anti-Giardia activity than metronidazole [1]: 40 fold; fold decrease of affinity for hPDE4B (hPDE4B; compared to 18): 60 fold |
| COc1ccc(C2=NN(C3CCN(c4ccc5nccn5n4)CC3)C(=O)CC2)cc1OC [Compound 20, 6-(3,4-Dimethoxyphenyl)-2-(1-(imidazo[1,2-b]pyridazin-6-yl)piperidin-4-yl)-4,5-dihydropyridazin-3(2H)-one] | > 64 | 930 ± 100 | > 64 | > 64000 | > 1000 | 0.005 ± 0.001 | > 64 | > 64 | fold decrease of anti-Giardia activity [1]: 4,500 fold; GlPDE inhibition (in words) (GlPDE (aa588-1371)): no GlPDE inhibition |
| O=C(c1ccccc1)C1CCN(c2ccc3ncc([N+](=O)[O-])n3n2)CC1 [Compound 29, (1-(3-Nitroimidazo[1,2-b]pyridazin-6-yl)piperidin-4-yl)(phenyl)methanone] | 18.9 ± 13.9 | 1.1 ± 0.2 | 34.4 ± 2.4 | > 64000 |  |  | > 64 | 11.7 ± 1.4 |  |
| COc1ccc(CN(C)c2ccc3ncc([N+](=O)[O-])n3n2)cc1 [Compound 30, N-(4-Methoxybenzyl)-N-methyl-3-nitroimidazo[1,2-b]pyridazin-6-amine] | 29.7 ± 5.7 | 10.3 ± 1.5 | > 64 | > 64000 |  |  | > 64 | 46.9 ± 5.5 |  |
| c1cn2nc(N3CCCCC3)ccc2n1 [Compound 31, 6-(Piperidin-1-yl)imidazo[1,2-b]pyridazine] | 38.4 ± 3.2 | > 10000 | > 64 | > 64000 |  |  | > 64 | > 64 | anti-Giardia activity (in words) [1]: inactive; difference in inhibiting growth of G. lamblia ([1]; 31 (non-nitro analogue) versus 23): > 2,500 folds |
